Here are results for 28 compounds from patent publication US8129417B2, “Substituted octahydrocyclopenta[C]pyrrol-4-amines as calcium channel blockers” (Abbott Laboratories, priority 2008, dated 2012).

Chain of human Cav2.2 (Q00975 whole entry): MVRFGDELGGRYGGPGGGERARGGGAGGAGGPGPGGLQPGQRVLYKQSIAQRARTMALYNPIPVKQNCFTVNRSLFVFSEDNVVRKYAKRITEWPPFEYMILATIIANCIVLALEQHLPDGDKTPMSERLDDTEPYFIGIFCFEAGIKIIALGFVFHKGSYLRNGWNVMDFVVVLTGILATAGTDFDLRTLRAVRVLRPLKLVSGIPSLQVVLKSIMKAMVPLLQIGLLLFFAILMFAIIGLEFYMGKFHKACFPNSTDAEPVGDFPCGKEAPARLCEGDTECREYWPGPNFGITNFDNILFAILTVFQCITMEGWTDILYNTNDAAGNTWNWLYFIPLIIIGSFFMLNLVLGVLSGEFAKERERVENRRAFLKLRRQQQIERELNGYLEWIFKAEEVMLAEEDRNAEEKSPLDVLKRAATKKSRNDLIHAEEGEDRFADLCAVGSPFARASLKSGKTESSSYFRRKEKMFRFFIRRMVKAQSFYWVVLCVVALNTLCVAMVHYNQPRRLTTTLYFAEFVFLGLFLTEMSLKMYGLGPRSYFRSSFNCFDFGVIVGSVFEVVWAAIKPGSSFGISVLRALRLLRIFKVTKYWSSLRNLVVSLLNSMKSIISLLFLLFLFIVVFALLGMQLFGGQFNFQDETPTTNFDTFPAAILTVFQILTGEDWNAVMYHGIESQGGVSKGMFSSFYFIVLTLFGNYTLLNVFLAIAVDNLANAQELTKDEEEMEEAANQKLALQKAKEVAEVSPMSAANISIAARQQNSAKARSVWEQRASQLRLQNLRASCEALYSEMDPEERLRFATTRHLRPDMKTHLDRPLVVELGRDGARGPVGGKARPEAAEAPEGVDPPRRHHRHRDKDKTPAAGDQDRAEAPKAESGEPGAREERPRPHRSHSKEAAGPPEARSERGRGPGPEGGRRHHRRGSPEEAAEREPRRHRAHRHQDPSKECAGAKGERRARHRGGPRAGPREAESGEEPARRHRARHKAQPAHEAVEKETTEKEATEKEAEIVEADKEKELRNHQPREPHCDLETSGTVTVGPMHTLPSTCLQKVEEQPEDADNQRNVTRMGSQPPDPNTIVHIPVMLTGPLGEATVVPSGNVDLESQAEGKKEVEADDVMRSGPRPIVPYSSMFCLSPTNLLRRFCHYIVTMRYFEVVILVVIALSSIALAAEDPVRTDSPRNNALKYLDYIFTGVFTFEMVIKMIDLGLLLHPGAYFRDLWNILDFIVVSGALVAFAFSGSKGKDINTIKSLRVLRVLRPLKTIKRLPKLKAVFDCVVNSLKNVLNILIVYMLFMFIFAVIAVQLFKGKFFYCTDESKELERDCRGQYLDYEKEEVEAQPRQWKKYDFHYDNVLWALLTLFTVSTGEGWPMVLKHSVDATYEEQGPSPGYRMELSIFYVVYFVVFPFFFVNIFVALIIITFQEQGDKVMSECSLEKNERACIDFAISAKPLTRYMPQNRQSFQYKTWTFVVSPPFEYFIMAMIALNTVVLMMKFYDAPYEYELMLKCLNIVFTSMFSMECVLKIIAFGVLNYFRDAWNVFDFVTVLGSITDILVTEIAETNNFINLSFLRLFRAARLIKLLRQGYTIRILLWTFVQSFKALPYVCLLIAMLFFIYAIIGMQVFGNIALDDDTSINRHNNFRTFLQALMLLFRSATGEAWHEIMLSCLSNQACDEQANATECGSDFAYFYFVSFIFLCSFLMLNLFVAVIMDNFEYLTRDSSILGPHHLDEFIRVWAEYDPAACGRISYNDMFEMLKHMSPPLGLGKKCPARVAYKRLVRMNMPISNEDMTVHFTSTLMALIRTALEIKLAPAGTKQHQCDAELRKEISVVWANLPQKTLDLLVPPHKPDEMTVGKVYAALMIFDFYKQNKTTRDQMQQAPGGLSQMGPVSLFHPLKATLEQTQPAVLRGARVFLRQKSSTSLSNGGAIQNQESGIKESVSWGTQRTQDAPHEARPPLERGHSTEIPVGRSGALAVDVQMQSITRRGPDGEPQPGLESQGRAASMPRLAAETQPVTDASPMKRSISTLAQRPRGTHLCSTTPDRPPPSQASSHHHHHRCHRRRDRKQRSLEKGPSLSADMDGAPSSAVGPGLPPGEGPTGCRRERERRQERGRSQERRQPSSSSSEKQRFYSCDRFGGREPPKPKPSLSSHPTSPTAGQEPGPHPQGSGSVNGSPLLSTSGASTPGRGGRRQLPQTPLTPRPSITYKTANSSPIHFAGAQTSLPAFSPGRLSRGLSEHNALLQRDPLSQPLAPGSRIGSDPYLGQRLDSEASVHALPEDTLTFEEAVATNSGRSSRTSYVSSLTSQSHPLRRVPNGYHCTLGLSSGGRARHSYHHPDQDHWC
Chain of human Cav2.2 (P54289 25-946 partner limits assumed): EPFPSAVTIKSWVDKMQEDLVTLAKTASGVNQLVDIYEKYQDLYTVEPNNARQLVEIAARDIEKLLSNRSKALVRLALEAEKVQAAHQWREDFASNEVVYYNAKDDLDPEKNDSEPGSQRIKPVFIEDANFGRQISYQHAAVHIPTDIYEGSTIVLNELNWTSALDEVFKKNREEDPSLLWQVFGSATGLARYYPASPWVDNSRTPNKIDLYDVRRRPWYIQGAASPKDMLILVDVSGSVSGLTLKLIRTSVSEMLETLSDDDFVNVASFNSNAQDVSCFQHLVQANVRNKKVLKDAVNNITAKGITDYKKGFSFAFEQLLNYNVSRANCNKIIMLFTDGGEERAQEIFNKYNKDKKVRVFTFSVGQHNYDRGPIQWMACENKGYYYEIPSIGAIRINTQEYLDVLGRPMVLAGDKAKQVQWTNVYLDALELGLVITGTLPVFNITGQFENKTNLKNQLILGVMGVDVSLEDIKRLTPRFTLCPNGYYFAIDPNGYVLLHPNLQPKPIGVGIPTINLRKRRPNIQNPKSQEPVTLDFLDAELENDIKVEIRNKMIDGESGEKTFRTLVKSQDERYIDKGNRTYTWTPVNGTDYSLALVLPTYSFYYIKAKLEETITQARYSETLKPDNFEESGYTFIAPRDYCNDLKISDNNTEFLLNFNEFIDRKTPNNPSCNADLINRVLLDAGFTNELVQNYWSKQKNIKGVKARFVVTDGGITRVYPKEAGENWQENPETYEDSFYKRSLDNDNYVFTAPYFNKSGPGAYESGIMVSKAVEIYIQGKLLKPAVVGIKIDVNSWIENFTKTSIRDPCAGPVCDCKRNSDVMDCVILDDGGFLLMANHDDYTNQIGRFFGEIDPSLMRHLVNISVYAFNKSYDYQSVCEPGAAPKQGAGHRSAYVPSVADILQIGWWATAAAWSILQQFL
Chain of human Cav2.2 (P54289 947-1103 partner limits assumed): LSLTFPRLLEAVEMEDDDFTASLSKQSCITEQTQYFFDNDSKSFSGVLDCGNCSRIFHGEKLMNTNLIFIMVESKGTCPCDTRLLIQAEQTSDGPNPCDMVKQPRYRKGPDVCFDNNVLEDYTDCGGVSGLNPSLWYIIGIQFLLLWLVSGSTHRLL
Chain of human Cav2.2 (P54284 whole entry partner): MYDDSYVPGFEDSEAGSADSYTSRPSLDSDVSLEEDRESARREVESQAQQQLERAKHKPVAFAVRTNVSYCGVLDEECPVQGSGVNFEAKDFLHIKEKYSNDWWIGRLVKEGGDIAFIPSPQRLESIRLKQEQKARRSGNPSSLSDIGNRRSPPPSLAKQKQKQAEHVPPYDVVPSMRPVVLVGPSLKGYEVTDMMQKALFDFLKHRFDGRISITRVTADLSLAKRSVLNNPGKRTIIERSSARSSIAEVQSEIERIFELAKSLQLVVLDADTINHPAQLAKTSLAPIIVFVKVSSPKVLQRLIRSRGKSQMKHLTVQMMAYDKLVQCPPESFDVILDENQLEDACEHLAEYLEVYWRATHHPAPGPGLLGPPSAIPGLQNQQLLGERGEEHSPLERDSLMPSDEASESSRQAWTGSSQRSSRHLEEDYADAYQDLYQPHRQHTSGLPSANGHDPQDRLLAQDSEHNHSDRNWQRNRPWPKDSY

One experiment deals with human Cav2.2 (Homo sapiens, UniProt Q00975). The experiment can be described thus: Assessment of calcium channel activity using FLIPR (Ca2+ influx in IMR32 cells). It is filed as cell-based. To be noted: 3 minute pre-incubation with compound (*), 2 μM nifedipine, depolarized with 80 mM KCl. Summed up:
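IMR32 neuroblastoma cells seeded at 1-1.2×10^5 cells/well and grown 48 h at 37 °C before FLIPR Ca2+ influx read. Percent inhibition at each concentration vs no-inhibitor activity; IC50 by non-linear sigmoidal dose-response fit.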
A word on the IC50: it is the concentration that inhibits the measured activity by half. Consider `CC(C)(C)C(Cc1ccccc1)C(=O)N[C@@H]1CC[C@H]2CN(Cc3ccccc3)C[C@H]21` (stereo partly drawn) [Example 29, 2-benzyl-N-[(3aS,4R,6aR)-2-benzyloctahydrocyclopenta[c]pyrrol-4-yl]-3,3-dimethylbutanamide], for which the IC50 stood at 5600 nM.
The same measure, in the same setting: in the case of `CC(C)C(C(=O)N[C@H]1CC[C@@H]2CN(Cc3ccncc3)C[C@@H]21)c1ccccc1` (stereo partly drawn) [Example 103, 3-methyl-2-phenyl-N-[(3aR,4S,6aS)-2-(pyridin-4-ylmethyl)octahydrocyclopenta[c]pyrrol-4-yl]butanamide] it was 31000 nM.

The experiment is the same for the next values; noted with them: 60 minute pre-incubation with compound, 2 μM nifedipine, depolarized with 80 mM KCl.
Regarding `CCC[C@@H](C(=O)N[C@@H]1CC[C@@H]2CN(Cc3ccccc3)C[C@@H]21)N(C)C(=O)OC(C)(C)C` [Example 240, tert-butyl(S)-1-((3aR,4R,6aS)-2-benzyloctahydrocyclopenta[c]pyrrol-4-ylamino)-1-oxopentan-2-yl(methyl)carbamate], the concentration for half-maximal inhibition (IC50) is 2670 nM.
Still for that read-out and setting: as for `O=C(N[C@@H]1CC[C@H]2CN(CCCCCC(c3ccc(F)cc3)c3ccc(F)cc3)C[C@H]21)C(C1CCCCC1)C1CCCCC1` [Example 78, N-{(3aS,4R,6aR)-2-[6,6-bis(4-fluorophenyl)hexyl]octahydrocyclopenta[c]pyrrol-4-yl}-2,2-dicyclohexylacetamide], the figure is 400 nM.
Same read-out and setting: in the case of `CCC[C@@H](C(=O)N[C@@H]1CC[C@H]2CN(S(=O)(=O)c3ccc(C(F)(F)F)cc3)C[C@H]21)N(C)C(=O)OC(C)(C)C` [Example 331, tert-butyl methyl((S)-1-oxo-1-((3aS,4R,6aR)-2-(4-(trifluoromethyl)phenylsulfonyl)octahydrocyclopenta[c]pyrrol-4-ylamino)pentan-2-yl)carbamate] it was 750 nM; in that of `CC(C)C[C@@H](C(=O)N[C@@H]1CC[C@H]2CN(Cc3ccccc3)C[C@H]21)N(C)CCC(C)(C)C` [Example 511, N^1-[(3aS,4R,6aR)-2-benzyloctahydrocyclopenta[c]pyrrol-4-yl]-N^2-(3,3-dimethylbutyl)-N^2-methyl-L-leucinamide], 2120 nM; in that of `CC(C)(C)C[C@H](N)C(=O)N[C@H]1CC[C@@H]2CN(S(=O)(=O)c3ccc(C(F)(F)F)cc3)C[C@@H]21` [Example 419, 4-methyl-N^1-((3aR,4S,6aS)-2-{[4-(trifluoromethyl)phenyl]sulfonyl}octahydrocyclopenta[c]pyrrol-4-yl)-L-leucinamide], 800 nM.
Consider `CCC[C@H](NC)C(=O)N[C@H]1CC[C@@H]2CN(CCC(c3ccc(F)cc3)c3ccc(F)cc3)C[C@@H]21` [Example 458, N^1-{(3aR,4S,6aS)-2-[3,3-bis(4-fluorophenyl)propyl]octahydrocyclopenta[c]pyrrol-4-yl}-N^2-methyl-L-norvalinamide], for which the IC50 is 3080 nM.
Same read-out and setting: as for `CN[C@@H](CC(C)C)C(=O)N[C@@H]1CC[C@H]2CN(S(=O)(=O)c3ccc(F)cc3)C[C@H]21` [Example 444, N^1-{(3aS,4R,6aR)-2-[(4-fluorophenyl)sulfonyl]octahydrocyclopenta[c]pyrrol-4-yl}-N^2-methyl-L-leucinamide], the figure is 2110 nM; as for `O=C(N[C@H]1CC[C@H]2CN(CCCc3ccc(F)cc3)C[C@H]21)C(C1CCCCC1)C1CCCCC1` [Example 71, 2,2-dicyclohexyl-N-{(3aS,4S,6aR)-2-[3-(4-fluorophenyl)propyl]octahydrocyclopenta[c]pyrrol-4-yl}acetamide], 1200 nM.
Still for that read-out and setting: as for `CC(C)(C)CN[C@H]1CC[C@@H]2CN(S(=O)(=O)c3cccc(C(F)(F)F)c3)C[C@@H]21` [Example 282, (3aR,4S,6aS)—N-neopentyl-2-{[3-(trifluoromethyl)phenyl]sulfonyl}octahydrocyclopenta[c]pyrrol-4-amine], the figure is 5240 nM; as for `CCC[C@H](NC(C)C)C(=O)N[C@H]1CC[C@@H]2CN(S(=O)(=O)c3cccc(C(F)(F)F)c3)C[C@@H]21` [Example 483, N^2-isopropyl-N^1-((3aR,4S,6aS)-2-{[3-(trifluoromethyl)phenyl]sulfonyl}octahydrocyclopenta[c]pyrrol-4-yl)-L-norvalinamide], 490 nM.
Still for that read-out and setting: as for `CN[C@@H](CC(C)C)C(=O)N[C@@H]1CC[C@H]2CN(S(=O)(=O)c3ccc(F)c(F)c3)C[C@H]21` [Example 445, N^1-{(3aS,4R,6aR)-2-[(3,4-difluorophenyl)sulfonyl]octahydrocyclopenta[c]pyrrol-4-yl}-N^2-methyl-L-leucinamide], the figure is 7960 nM; as for `CN[C@@H](CC(C)C)C(=O)N[C@@H]1CC[C@H]2CN(Cc3ccc(C(F)(F)F)cc3)C[C@H]21` [Example 449, N^2-methyl-N^1-{(3aS,4R,6aR)-2-[4-(trifluoromethyl)benzyl]octahydrocyclopenta[c]pyrrol-4-yl}-L-leucinamide], 4060 nM; as for `O=C(N[C@H]1CC[C@H]2CN(Cc3cccc(C(F)(F)F)c3)C[C@H]21)C1CCCCC1` (relative stereo) [Example 127, N-{(3aS*,4S*,6aR*)-2-[3-(trifluoromethyl)benzyl]octahydrocyclopenta[c]pyrrol-4-yl}cyclohexanecarboxamide], 1500 nM.
In the case of `O=C(N[C@@H]1CC[C@H]2CN(Cc3ccccc3)C[C@H]21)C(C1CCCCC1)C1CCCCC1` [Example 20, N-[(3aS,4R,6aR)-2-benzyloctahydrocyclopenta[c]pyrrol-4-yl]-2,2-dicyclohexylacetamide], the IC50 worked out at 1800 nM.
Regarding `CC(C)(C)C[C@H](N)C(=O)N[C@H]1CC[C@@H]2CN(c3ccc(C(F)(F)F)cn3)C[C@@H]21` [Example 440, 4-methyl-N^1-{(3aR,4S,6aS)-2-[5-(trifluoromethyl)pyridin-2-yl]octahydrocyclopenta[c]pyrrol-4-yl}-L-leucinamide], the IC50 stood at 3190 nM.
`O=C(N[C@H]1CC[C@H]2CN(Cc3ccccc3C(F)(F)F)C[C@H]21)C(C1CCCCC1)C1CCCCC1` [Example 60, 2,2-dicyclohexyl-N-{(3aS,4S,6aR)-2-[2-(trifluoromethyl)benzyl]octahydrocyclopenta[c]pyrrol-4-yl}acetamide]: the half-maximal inhibitory concentration (IC50) is 1500 nM.
Same read-out and setting: in the case of `CN[C@@H](CC(C)C)C(=O)N1C[C@H]2CC[C@H](NS(=O)(=O)c3cccc(C(F)(F)F)c3)[C@H]2C1` [Example 558, N-[(3aR,4S,6aS)-2-(N-methyl-L-leucyl)octahydrocyclopenta[c]pyrrol-4-yl]-3-(trifluoromethyl)benzenesulfonamide] it was 4880 nM; in that of `CN(C(=O)OC(C)(C)C)[C@@H](CC(C)(C)C)C(=O)N[C@@H]1CC[C@H]2CN(S(=O)(=O)c3ccc(C(F)(F)F)cc3)C[C@H]21` [Example 339, tert-butyl(S)-4,4-dimethyl-1-oxo-1-((3aS,4R,6aR)-2-(4-(trifluoromethyl)phenylsulfonyl)octahydrocyclopenta[c]pyrrol-4-ylamino)pentan-2-yl(methyl)carbamate], 1110 nM; in that of `CC(C)(C)C[C@H](NC(=O)OC(C)(C)C)C(=O)N[C@H]1CC[C@@H]2CN(c3ccc(C(F)(F)F)cn3)C[C@@H]21` [Example 262, tert-butyl(S)-4,4-dimethyl-1-oxo-1-((3aR,4S,6aS)-2-(5-(trifluoromethyl)pyridin-2-yl)octahydrocyclopenta[c]pyrrol-4-ylamino)pentan-2-ylcarbamate], 1800 nM.
Still for that read-out and setting: as for `CC(C)C[C@H](NC(C)C)C(=O)N[C@H]1CC[C@@H]2CN(S(=O)(=O)c3cccc(C(F)(F)F)c3)C[C@@H]21` [Example 496, N^2-isopropyl-N^1-((3aR,4S,6aS)-2-{[3-(trifluoromethyl)phenyl]sulfonyl}octahydrocyclopenta[c]pyrrol-4-yl)-L-leucinamide], the figure is 530 nM; as for `CN[C@@H](CC(C)C)C(=O)N[C@@H]1CC[C@H]2CN(S(=O)(=O)c3cc(F)cc(F)c3)C[C@H]21` [Example 446, N^1-{(3aS,4R,6aR)-2-[(3,5-difluorophenyl)sulfonyl]octahydrocyclopenta[c]pyrrol-4-yl}-N^2-methyl-L-leucinamide], 4960 nM; as for `CN(C(=O)OC(C)(C)C)[C@@H](CC(C)(C)C)C(=O)N[C@@H]1CC[C@H]2CN(S(=O)(=O)c3cccc(C(F)(F)F)c3)C[C@H]21` [Example 338, tert-butyl(S)-4,4-dimethyl-1-oxo-1-((3aS,4R,6aR)-2-(3-(trifluoromethyl)phenylsulfonyl)octahydrocyclopenta[c]pyrrol-4-ylamino)pentan-2-yl(methyl)carbamate], 230 nM.
Same read-out and setting: as for `CCC[C@H](NC)C(=O)N[C@H]1CC[C@@H]2CN(S(=O)(=O)c3ccc(F)c(Cl)c3)C[C@@H]21` [Example 534, N^1-{(3aR,4S,6aS)-2-[(3-chloro-4-fluorophenyl)sulfonyl]octahydrocyclopenta[c]pyrrol-4-yl}-N^2-methyl-L-norvalinamide], the figure is 6380 nM.
For the compound `CC(C)(C)C[C@H](NCC1CC1)C(=O)N[C@H]1CC[C@@H]2CN(S(=O)(=O)c3ccc(C(F)(F)F)cc3)C[C@@H]21` [Example 471, N^2-(cyclopropylmethyl)-4-methyl-N^1-((3aR,4S,6aS)-2-{[4-(trifluoromethyl)phenyl]sulfonyl}octahydrocyclopenta[c]pyrrol-4-yl)-L-leucinamide], the IC50 was found to be 650 nM.
As to `CC(C)C(C(=O)N[C@@H]1CC[C@H]2CN(Cc3cccc(C(F)(F)F)c3)C[C@H]21)C(C)C` [Example 304, 2-isopropyl-3-methyl-N-{(3aS,4R,6aR)-2-[3-(trifluoromethyl)benzyl]octahydrocyclopenta[c]pyrrol-4-yl}butanamide], the IC50 turned out to be 3780 nM.

Still in this experiment, the particulars now being: IMR-32, @ 10 μM, 3 minute pre-incubation (*), read-out: percent inhibition.
As usually defined, the inhibition is the change of the read-out against control, counted positive when it falls. Turning to `CC(C)Cc1ccc([C@H](C)C(=O)N[C@H]2CC[C@@H]3CN(Cc4ccccc4)C[C@@H]32)cc1` [Example 39, (2S)—N-[(3aR,4S,6aS)-2-benzyloctahydrocyclopenta[c]pyrrol-4-yl]-2-(4-isobutylphenyl)propanamide], the inhibition at 10 µM is 92%.
